Laboratory results as given in article PMC10254897, “Development and Validation of a New LC-MS/MS Bioanalytical Method for the Simultaneous Determination of Levodopa, Levodopa Methyl Ester, and Carbidopa in Human Plasma Samples” (Molecules, 2023).

Test: Short-term, medium-term and autosampler stability in plasma samples and extracts
Format: physicochemical, human
Conditions: for Stability in plasma samples at −40 °C (time stable): tested 2 weeks, 1 and 2 months
Method: Sample stability was measured at two concentration levels (LQC and HQC) in triplicate. Long-term stability was evaluated at −40 °C for 2 weeks, 1 and 2 months; short-term stability was evaluated at room temperature (rt) under light exposure and with light protection and at 4 °C (light protection) for 1, 2, 3, 4, and 7 days. Autosampler stability was also assessed by storing extracts in the autosampler compartment at 10 °C for 1, 2, 3, 4, and 7 days.
The mean concentration values obtained from each measurement were compared to the concentrations measured at T0 before storage. Stability data are expressed as percentual difference from T0.

[1] = plasma samples stored at −40 °C

Stability in plasma samples at −40 °C (time stable) [1] | Compound | also measured
up to 1 months | C[C@@](Cc1ccc(O)c(O)c1)(NN)C(=O)O [Carbidopa, carbidopa] | 
up to 2 months | N[C@@H](Cc1ccc(O)c(O)c1)C(=O)O [L-DOPA, Levodopa] | 
 | COC(=O)C(N)Cc1ccc(O)c(O)c1 (stereo not shown) [LDME, levodopa methyl ester] | Stability in plasma samples at −40 °C (in words) [1]: not satisfactory
 | NC(CO)C(=O)NNCc1ccc(O)c(O)c1O (stereo not shown) [benserazide] | Stability of the compound (in words) (method development, conditions not stated): severe stability issues
